In assay [1] the test system is γ-secretase. The assay can be described thus: Accumulation of membrane-associated CD44 C-terminal fragments in CD44-transfected CHO cells (Western blot, anti-V5). The format is cell-based. The note with it: CHO cells transfected with CD44 C-terminal V5-tag, 16 hours. As to the method:
FIG. 1. The accumulation of membrane-associated C-terminal derivatives of CD44 by a γ-secretase inhibitor. The CHO cells transfected with constructs encoding CD44 with C-terminal V5-tag were incubated in the presence of the indicated concentrations of γ-secretase inhibitor Compound E (Cpd. E) for 16 hours. Detergent lysates were analyzed by Western blot analyses (4-20% Tris-Glycine SDS-PAGE) using anti-V5 antibody.
When constructs encoding full-length CD44 with C-terminal V5 epitope tag were transiently expressed, full-length CD44 (˜85 kDa) was constitutively processed to generate membrane-associated C-terminal fragments with apparent molecular weights of ˜19 to 22 kDa (FIG. 1). First, experiments were performed to determine whether a γ-secretase inhibitor blocks the putative intramembrane cleavage of CD44 to cause an accumulation of CD44 similar to that observed for APP and ErbB4 (Lee, H.-J., Jung, K.-M., Huang, Y. Z., Bennett, L. B., Lee, J. S., Mei, L. and Kim, T.-W., Presenilin-dependent γ-secretase-like intramembrane cleavage of ErbB4. J. Biol. Chem., 277:6318-6329 (2002)).

Assay [2] concerns γ-secretase. Description: In vitro CD44-ICD generation using membrane fractions from CD44-transfected 293 cells. The format is biochemical. Set-up: dose or concentration left out as unconfirmed. As to conditions: membrane fractions from dW and dAsp cells, 37° C. As to the method:
FIG. 4. In vitro generation of the CD44 intracellular domain (CD44-ICD). Membrane fractions prepared from either dW or dAsp cells transfected with full-length CD44 were incubated at 37° C. for the indicated hours with or without Cpd E (1 mM) or MG132 (50 mM). After the incubation, both the pellet (A) and the supernatant (B) were analyzed by Western blot analyses […] using anti-V5 antibody.
The incubation of the cytosol-free membrane fractions from dW cells transfected with CD44 led to the generation of two fragments (T1 and T2) in the membrane fractions (FIG. 4A) and the release of V5-epitope-tagged CD44-ICD into the soluble fraction (FIG. 4B).

Another assay deals with CD44. Description: Ligand-induced CD44 cleavage / generation of CD44-ICD in CD44-transfected cells (Western blot, anti-V5). The format is cell-based. From the text:
FIG. 5. (A) Schematic representations of truncated CD44 constructs and putative cleavage sites of CD44. Starting amino acid sequences of truncated (ΔE) or intracellular (ICD) CD44 constructs and predicated proteolytic cleavage sites are indicated by arrows. Full-length (FL) and all ICD constructs contain C-terminal V5 tag, whereas all ΔE constructs harbor N-terminal HA tag located immediately after the signal peptide in addition to the C-terminal V5 tag. (B) Expression of truncated CD44 constructs in HEK293 cells. The lysates from the cells transfected with indicated constructs were analyzed by Western blot analyses. The locations of precursor polypeptide encoded by each constructs as well as the cleavage products (e.g. S1, T1, and T2) are shown on the right side of each blot. The lysates from full-length CD44-transfected cells grown in the absence (FL) or presence (FL+hyaluronan) of hyaluronan are shown as controls.
FIG. 6. Ligand-induced generation of CD44-ICD. Cells were treated for 24 hours with solvent only (Control), hyaluronan, hyaluronan plus Cpd. E, phorbol ester TPA, and TPA plus hyaluronan, and the lysates were analyzed by Western blotting using anti-V5 antibody.
(§1) It has been previously reported that high molecular weight forms of hyaluronan (HA) induce cell growth arrest (Morrison et al., Genes and Development, 15, 968-980, 2001; Herrlich et al., Ann. NY Acad. Sci. 910, 106-118, 2000).

Another assay has as its system HEK293 cells. The assay can be described thus: Hyaluronan-mediated growth retardation, count of EGFP-positive CD44-transfected HEK293 cells. The note with it: 40 hour incubation. The format is cell-based. As to the method: FIG. 7. Effects of a γ-secretase inhibitor in hyaluronan-mediated growth retardation. HEK293 cells were transfected with constructs encoding both full-length CD44 and enhance green fluorescence protein (EGFP) in a single plasmid. Identical number of transfected cells were plated into multiple dishes and incubated with hyaluronan, hyaluronan plus Cpd. E, TPA, and TPA plus Cpd. E. After 40 hour incubation, the number of EGFP-positive cells were counted. Values represent the mean±s.d.
as §1

“Also recorded” adds a separate entry of the source.

`C[C@H](NC(=O)Cc1cc(F)cc(F)c1)C(=O)N[C@H]1N=C(c2ccccc2)c2ccccc2N(C)C1=O` [Compound E]: the “accumulation of transgene-derived CD44 C-terminal fragments” value in the assay with γ-secretase [1] is on record as “led to the accumulation”. Also, the “generation of T1 fragments” value in the assay on γ-secretase [2] is recorded as “not blocked”. Besides, the “inhibition of the HA-induced accumulation of S1 and T1 cleavage products” value in the assay with CD44 (hyaluronan plus Compound E) was “didn't inhibit”. Further, the “effect on T2 cleavage products” value in the assay on CD44 (hyaluronan plus Cpd. E, 24 hours) is recorded as “selectively affected”. Also, the “effect on the growth inhibition induced by HA” value in the assay on HEK293 cells (hyaluronan plus Cpd. E) is “reverted the growth-inhibition”.

hyaluronan [HA]: in the assay with CD44 (cells treated with high molecular weight forms of HA), the “levels of S1 and T1 cleavage products” value was “elevated”. Further, the “generation of CD44-ICD” value in the assay with CD44 (cells treated with high molecular weight forms of HA, 24 hours) is given as “led to the generation of CD44-ICD”. Besides, in the assay with CD44 (full-length CD44-transfected HEK293 cells, FL vs. FL+hyaluronan), the “generation of S1 and T2 cleavage” value is listed as “increased generation”. For the same compound, the “growth of cells transfected with CD44” value in the assay with HEK293 cells (HEK293 cells, full-length CD44 and EGFP) is “induced growth inhibition; also recorded: led to an inhibition of cell proliferation”.

Values taken from patent US20050031610A1, “CD44-related fragments, compositions and methods” (priority 2002, published 2005).
